Reference: PubChem BioAssay (NCI)
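These data come from cells grown in 96-well plates and exposed to compound for 48 hours at five concentrations. TGI denotes the concentration required for complete inhibition of growth.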

Columns and labels:
Assay in all cases: NCI anticancer screen, dose series, 48 h
M14 melanoma = system: M14 melanoma
SK-MEL-28 melanoma = system: SK-MEL-28 melanoma
HOP-92 NSCLC = system: HOP-92 NSCLC
KM20L2 colon = system: KM20L2 colon
UACC-257 melanoma = system: UACC-257 melanoma
HOP-18 NSCLC = system: HOP-18 NSCLC
OVCAR-5 ovarian = system: OVCAR-5 ovarian
NCI-H522 lung = system: NCI-H522 lung
HCT-15 colon = system: HCT-15 colon
LOX IMVI melanoma = system: LOX IMVI melanoma
SK-MEL-2 melanoma = system: SK-MEL-2 melanoma
IGROV1 ovarian = system: IGROV1 ovarian
SW-620 colon = system: SW-620 colon
CAKI-1 renal = system: CAKI-1 renal
HL-60(TB) leukemia = system: HL-60(TB) leukemia
A498 renal = system: A498 renal
A549 NSCLC = system: A549 NSCLC
DLD-1 colon = system: DLD-1 colon
U251 CNS = system: U251 CNS
HT29 colon = system: HT29 colon
NCI-H226 lung = system: NCI-H226 lung
HCT-116 colon = system: HCT-116 colon
SNB-78 CNS = system: SNB-78 CNS
RXF-631 renal = system: RXF-631 renal
OVCAR-8 ovarian = system: OVCAR-8 ovarian
TK-10 renal = system: TK-10 renal
RXF 393 renal = system: RXF 393 renal
K-562 leukemia = system: K-562 leukemia
HCC-2998 colon = system: HCC-2998 colon
EKVX NSCLC = system: EKVX NSCLC
KM12 colon = system: KM12 colon
MALME-3M melanoma = system: MALME-3M melanoma
XF 498 CNS = system: XF 498 CNS
M19-MEL melanoma = system: M19-MEL melanoma
SF-268 CNS = system: SF-268 CNS
MOLT-4 leukemia = system: MOLT-4 leukemia
ACHN renal = system: ACHN renal
NCI-H460 lung = system: NCI-H460 lung
SR leukemia = system: SR leukemia
786-0 renal = system: 786-0 renal
OVCAR-4 ovarian = system: OVCAR-4 ovarian
UACC-62 melanoma = system: UACC-62 melanoma
SN12C renal = system: SN12C renal
DMS 273 small cell lung = system: DMS 273 small cell lung
SNB-75 CNS = system: SNB-75 CNS
DMS 114 small cell lung = system: DMS 114 small cell lung
SK-OV-3 ovarian = system: SK-OV-3 ovarian
RPMI-8226 leukemia = system: RPMI-8226 leukemia
UO-31 renal = system: UO-31 renal
SF-295 CNS = system: SF-295 CNS
CCRF-CEM leukemia = system: CCRF-CEM leukemia
SF-539 CNS = system: SF-539 CNS
SNB-19 CNS = system: SNB-19 CNS
HOP-62 NSCLC = system: HOP-62 NSCLC
LXFL 529 NSCLC = system: LXFL 529 NSCLC
NCI-H23 lung = system: NCI-H23 lung

Measured: TGI

CN(C)C(=N/O)/C(=N\O)N(C)C
> 100 µM: all assays above
